Measurements taken from article PMC8196871, “Molecular Imaging and Preclinical Studies of Radiolabeled Long-Term RGD Peptides in U-87 MG Tumor-Bearing Mice” (International Journal of Molecular Sciences, 2021).

Tests used:
U-87 MG cells = assay type: binding, human; conditions: 4 h
Description: As the concentration of unlabeled DOTA-EB-cRGDfK or DOTA-cRGDfK increased, the binding ratio of ^111In-DOTA-EB-cRGDfK decreased, indicating the presence of specific binding affinity (Figure 2C).
U-87 MG cells were seeded into 24-well plates at a density of 1 × 10^5 cells per well and incubated overnight. Different concentrations ranging from 0.01 nM to 5000 nM of DOTA-EB-cRGDfK or DOTA-cRGDfK were added to the wells. U-87 MG cells were then incubated with 10 nM ^111In-DOTA-EB-cRGDfK for 4 h at 37 °C. Cells were washed once with 0.5 mL PBS and were removed from each well by 0.25% trypsin-EDTA (Gibco, Gaithersburg, MD, USA). The cell suspensions were collected and measured by using a PerkinElmer 2480 Automatic Gamma Counter (PerkinElmer, Waltham, MA, USA). Binding results were expressed as a percent of total counts, and IC50 values were calculated using SigmaPlot 12.5 (Systat Software, Inc., San Jose, CA, USA).

tumor = system: tumor; parameters: method as in PMID 25621196; conditions: cited from earlier work
[1] = mouse, in vivo, iv
Description: Blood samples (10 μL) were collected by heart puncture under 2% isoflurane anesthesia at 0.083, 0.5, 2, 4, 24, 48, 72, 96, and 168 h. The radioactivity of blood samples was measured by PerkinElmer 2480 gamma counter and expressed as the percentage injected dose per gram (% ID/g). Data was used to determine the pharmacokinetic parameters by noncompartmental analysis (NCA) and the analysis software was WinNonlin 7.0 (Pharsight Corporation, Mountain View, CA, USA). Parameters, including terminal half-life (T1/2λz), maximum concentration (Cmax), total body clearance (Cl), area under curve (AUC), and mean residence time (MRT) were determined. Pharmacokinetic parameters associated with the terminal phase were calculated using the best-fit method to estimate the terminal half-life.

[2] = NanoSPECT/CT imaging with image quantification; assay type: in vivo; conditions: female, NOD/SCID, mouse, tumor, iv, 2.5 ug, total radioactivity; 0.5 h after tail-vein injection (about 18.5 MBq, 2.5 μg); U-87 MG xenografts in mice; nanoSPECT/CT ROI
Description: Figure 3 presented nanoSPECT/CT images of U-87 MG xenografts in mice administered with different radiolabeled peptides. […] Comparing with ^111In-DOTA-EB-cRGDfK, the highest tumor uptake of ^111In-DOTA-cRGDfK was 2.0 ± 0.5% ID/g at 0.5 h. […] The ratios of tumor to muscle and tumor to liver were 1.8 ± 0.7 and 0.5 ± 0.1 at 0.5 h, respectively. The highest tumor uptake of ^111In-DOTA-EB was 10.3 ± 4.4% ID/g at 24 h, and it slightly dropped to 9.97 ± 4.37% ID/g at 72 h.
The human glioblastoma cell line, U-87 MG (stock number: BCRC 60360), was obtained from Bioresource Collection and Research Center. Cells were grown in Minimum Essential Medium (MEM; Gibco, Grand Island, NY, USA) supplemented with 10% (v/v) fetal bovine serum (FBS; Gibco, Gaithersburg, MD, USA) and 1% antibiotic antimycotic solution (Sigma-Aldrich, St. Louis, MO, USA) at 37 °C under 5% CO2 incubation. Female non-obese diabetic, severe combined immunodeficiency (NOD/SCID) mice were obtained from BioLASCO Taiwan Co., Ltd. The 6-week-old mice were housed in a 12 h light cycle at 22 °C, with food and water provided ad libitum. […]
The procedure for nanoSPECT/CT imaging has been previously described. […] The image quantification of the region of interest (ROI) was acquired by PMOD v. […]

**Q.** Which IC50 (U-87 MG cells) does the source give for N=C(N)NCCC[C@@H]1NC(=O)[C@H](CCCCNC(=O)CN2CCN(CC(=O)O)CCN(CC(=O)O)CCN(CC(=O)O)CC2)NC(=O)[C@@H](Cc2ccccc2)NC(=O)[C@H](CC(=O)O)NC(=O)CNC1=O [DOTA-cRGDfK] here?
**A.** Its IC50 is 35.2 nM.

**Q.** With N[C@@H](Cc1ccc(B(O)O)cc1[18F])C(=O)O [^18F-BPA] as the compound, how does the Tumor uptake (tumor) read?
**A.** The Tumor uptake was 1.44 ± 0.44 % ID/g.

**Q.** With N=C(N)NCCC[C@@H]1NC(=O)[C@H](CCCCNC(=O)CN2CCN(CC(=O)O)CCN(CC(=O)O)CCN(CC(=O)O)CC2)NC(=O)[C@@H](Cc2ccccc2)NC(=O)[C@H](CC(=O)O)NC(=O)CNC1=O [^111In-DOTA-cRGDfK, metal not drawn] as the compound, how does the “Cl (total body clearance)” value [1] read?
**A.** Its value is 12.9 mL/h.

**Q.** What about the “Maximum concentration (Cmax) in blood” value [1] of the same compound?
**A.** Its value is 3.74 % ID/g.

**Q.** What about the “T1/2λz (terminal half-life)” value [1] of the same compound?
**A.** The value was 17.2 h.

**Q.** What about the tissue uptake at 0.5 h [2] of the same compound?
**A.** The tissue uptake at 0.5 h was 2 ± 0.5 %ID/g.
